Experiments:
cancer cells = conditions: cited from earlier work
BCM-4013 PDX tumors = conditions: mouse, in vivo; cited from earlier work
MDA-MB-231 TNBC cells = assay: Cell proliferation / growth assay; type: cell-based, human

In the case of COc1cc(OC)c(C=C2C(O)=Nc3ccccc32)c(OC)c1 [IC261], the mode of action (cancer cells; not by inhibition of CK1δ/CK1ε) is given as “blocking tubulin function”.

For CC(=O)O[C@@]12CO[C@@H]1C[C@H](O)[C@@]1(C)C(=O)[C@H](O)C3=C(C)[C@@H](OC(=O)[C@H](O)[C@@H](NC(=O)OC(C)(C)C)c4ccccc4)C[C@@](O)([C@@H](OC(=O)c4ccccc4)[C@H]21)C3(C)C [docetaxel], the “response of the BCM-4013 model to treatment” value (BCM-4013 PDX tumors) is given as “limited response”.

With CC(C)(C)c1cc(NC(=O)Nc2ccc(-c3cn4c(n3)sc3cc(OCCN5CCOCC5)ccc34)cc2)no1 [AC220, reference compound] the anti-proliferative activity (MDA-MB-231 TNBC cells) was “insensitive”.

For Nc1nccc(-c2c(-c3ccc(F)cc3)ncn2C2CCCCC2)n1 [PF670462], the anti-cancer activity (cancer cells) is given as “lacks anti-cancer activity”.

— US10603322B2, “Therapeutic targeting of casein kinase 1δ in breast cancer” (The Scripps Research Institute, priority 2015, dated 2020)
